Measurements published in patent US20100317639A1 (priority 2005, published 2010).

Legend:
[1] = test system: X-adrenoleukodystrophic fibroblasts; conditions: patients suffering from adrenoleucodistrophy; literature; cited from earlier work
ACAT = conditions: literature statement; cited from earlier work
[2] = administered in form of triglyceride; literature; cited from earlier work
[3] = literature, cited from earlier work
[4] = test system: acyl-coenzyme A:cholesterol acetyltransferase enzyme (ACAT); experiment: Effect of the ester on ACAT activity in rat hepatic microsomes (14C-linoleic acid incorporation into cholesterol esters, TLC, beta counter); type: biochemical; conditions: rat liver microsomes 200 micrograms, mean+/-standard error
Procedure: For the experiments of effectiveness a test to evaluate the effect of the ester formed from linoleic acid obtained from example 1 and example 4 on acyl-coenzyme A:cholesterol acetyltransferase enzyme (ACAT) activity was performed. The experiment was performed in vitro according to a classic pharmacology method, used for the evaluation of the activity of this enzyme, reported in the method book: Drug discovery and evaluation, Pharmacological assay, Ed. H. G: Vogel (Springer), p. 1119, 2002.
Hepatic microsomes were prepared as well as in the example 1.
Eight tubes were prepared, in all tubes linoleic acid-^14C (10 microM) was incubated in presence of 200 micrograms of microsomes. Each tube contained phosphate buffer 0.04 M KH2PO4, pH 7.4 with 0.05 M KCl, 0.03 EDTA, 0.3 M sucrose, 1 mM α-cyclodextrin, final volume 750 microliters. The eight tubes have been incubated at 37° C. for 10 min.
The esters of example 1 and 4 were pooled together and three sample solutions of concentration 12.5, 25 and 50 micromolar respectively were prepared in duplicate, therefore obtaining six sample solutions.
The six sample solutions were then transferred respectively in six of eight tubes prepared as above at the end of the 10 minutes (each concentration of ester separately incubated per tube). The seventh tube was added with ^14C-linoleic acid alone (without esters) and the eighth with ethanol alone (carrier in which the esters were resuspended) to evaluate a possible effect of ethanol on the enzymatic activity. All the eight tubes have been incubated at 37° C. for four minutes.
At the end of the time the reaction was stopped by adding chloroform:methanol 2:1. The samples of the eight tubes were extracted according to the Folch's method (1957). The lower phase of each sample containing the lipid extracts was separated and dried, then taken-up again in 1 ml of chloroform:methanol 2:1. The extract of each sample was dried and subjected to TLC. […]
Spots were highlighted through iodine vapour. The bands which correspond to the standard for each TLC were taken off from the plate and counted in beta counter. […]

Compound: C[C@]12CC[C@@H](O)C[C@@H]1CC[C@@H]1[C@@H]2CC[C@]2(C)[C@@H](O)CC[C@@H]12 [5α-androstan-3α,17β-diol]
- beta-oxidation [1]: increase beta-oxidation
- cholesterol esterification processes [1]: reduce cholesterol esterification processes

Compound: CCCCCCCN(Cc1ccc(CC(C)(C)C)cc1)C(=O)Nc1ccc(F)cc1F [CL 277,082, N-(2,4-difluorophenyl)-N-(4-neopentylbenzyl)-N-(n-heptyl)urea]
- inhibiting the ACAT activity (ACAT): very strong and specific

Compound: C[C@]12CCC(=O)C[C@@H]1CC[C@@H]1[C@@H]2CC[C@]2(C)[C@@H](O)CC[C@@H]12 [dihydrotestosterone, 5α-androstan-17β-ol-3-one]
- beta-oxidation [1]: increase beta-oxidation
- cholesterol esterification processes [1]: reduce cholesterol esterification processes

Compound: CCCCCCCC/C=C\CCCCCCCCCCCC(=O)O [erucic acid, erucic acid (C22:1)]
- effectiveness in vitro [2]: only partially effective
- effectiveness in vivo ([3]; administered in form of triglyceride): little effective
- crossing of the hematoencephalic barrier ([3]; in vivo): failed to cross the hematoencephalic barrier

Compound: monoester of the androgen 5α-androstan-3α,17β-diol (3α-diol) and of the linoleic acid (LA) (cis,cis-9,12-octadecadienoic acid) (18:2, n-6) [Example 1]
- inhibition percentage with reference to the untreated sample ([4]; ester 12.5 microM): 2.5
- inhibition percentage with reference to the untreated sample ([4]; ester 25 microM): 44%
- inhibition percentage with reference to the untreated sample ([4]; ester 50 microM): 28%
